Here are results for five compounds from US10039740B2, “Therapeutic combinations of sesquiterpenes and flavonoids” (Primus Pharmaceuticals, Inc., priority 2015, dated 2018).

Assay [1] has as its system RAW267.4 cells. The assay is described as follows: Cell proliferation of RAW267.4 cells (cell counting). Type of assay: cell-based, mouse. As to conditions: cultured 3 days; for proliferation of RAW267.4 cells: p<0.001 vs control; for effect on RAW267.4 cells (proliferation): 1, 10, 50, 100, and 200 μg/ml, FIG. 4, FIG. 5. As for the experimental part:
Various experiments were conducted to determine effects of various active ingredients on RAW 267.4 in vitro. RAW267.4 cells refer to a mouse macrophage that produces various inflammatory cytokines including TNF-α and IL-1β. RAW267.4 cells may be prepared as 1×10^5/ml per well. These cells were cultured using a 24-well plate in DMEM containing 10% FBS and 1% P/S for 1, 2, 3 or 7 days in a water-saturated atmosphere containing 5% CO2 and 95% air at 37° C. RAW267.4 cells were cultured DMEM containing 10% FBS and 1% P/S in the presence of β-caryophyllene [1 (5 μM), 10, 50, 100 or 200 μg/ml of medium], baicalin [1 (2.24 μM), 10, 50, 100 or 200 μg/ml of medium], (+)-catechin [1 (3.45 μM), 10, 50, 100 or 200 μg/ml of medium], curcumin [1 (2.72 μM), 10, 50, 100 or 200 μg/ml of medium], or (+)-aromatic turmerone [1 (4.62 μM), 5, 10, 25 or 50 μg/ml of medium] for 3 days. After culture, cells were detached from each culture dish and counted. After trypsinization of each culture dish using 0.2% […] plus 0.02% EDTA in Ca^2+/Mg^2+-free PBS for 2 min at 37° C., detached cells from the dish were collected after centrifugation. Cells were resuspended in PBS solution and stained with eosin. Cell numbers were counted under a microscope using a Hemocytometer plate. Each dish was counted twice, and an average of two counts was calculated. Cell number was shown as number per well of plate. Statistical significance was determined using GraphPad InStat version 3 for Windows XP (GraphPad Software Inc. La Jolla, Calif.). Multiple comparisons were performed by one-way analysis of variance (ANOVA) with Tukey-Kramer multiple comparisons post test for parametric data as indicated. P<0.05 was considered statistically significant. The cells were cultured for 3 days in the presence of one or more various compounds to determine their anti-inflammatory effects.

The test system of assay [2] is RAW267.4 cells. Description: Cell death of RAW267.4 cells (cell number after confluence). Type of assay: cell-based, mouse. Conditions: for death of RAW267.4 cells in vitro: conclusion from the cell death experiments. As for the experimental part: RAW267.4 cells (1×10^5/ml per well) were cultured using a 24-well plate in DMEM containing 10% FBS and 1% P/S for 3 days until reaching confluence, and then the cells were cultured another for 2 days in the presence or absence of β-caryophyllene (1 or 10 μg/ml of medium) and/or baicalin or (+)-catechin (1 or 10 μg/ml of medium). After culture, cells were detached from each culture dish. After trypsinization of each culture dish using 0.2% […] plus 0.02% EDTA in Ca^2+/Mg^2+-free PBS for 2 min at 37° C., detached cells from the dish were collected after centrifugation. Cells were resuspended in PBS solution and stained with eosin. Cell numbers were counted under a microscope using a Hemocytometer plate. Each dish was counted twice, and an average of two counts was calculated. Cell number was shown as number per well of plate. Statistical significance was determined using GraphPad InStat version 3 for Windows XP (GraphPad Software Inc. La Jolla, Calif.). Multiple comparisons were performed by one-way analysis of variance (ANOVA) with Tukey-Kramer multiple comparisons post test for parametric data as indicated. P<0.05 was considered statistically significant.

SMILES strings stand for the structures.

For the compound `C=C1CC/C=C(\C)CC[C@@H]2[C@@H]1CC2(C)C` [β-caryophyllene], the “suppressive effect on cell proliferation” value in the assay on RAW267.4 cells [1] (1 or 10 μg/ml of each compound, FIG. 6, 7, 8, 10) is given as “did not result any significant suppressive effect”. Besides, in the assay on RAW267.4 cells [1] (50, 100, and 200 μg/ml of medium, FIG. 1), the “proliferation of RAW267.4 cells” value is “suppressed”. Further, in the assay with RAW267.4 cells [2] (3 days without chemicals, then 2 days with compound(s) at about 1 or 10 μg/ml of medium, FIG. 13), the “number of RAW267.4 cells (cell death)” value is reported as “did not induce a significant decrease”. Moreover, the “death of RAW267.4 cells in vitro” value in the assay with RAW267.4 cells [2] is “do not have significant effects”.
In the case of `O=C(O)[C@H]1O[C@@H](Oc2cc3oc(-c4ccccc4)cc(=O)c3c(O)c2O)[C@H](O)[C@@H](O)[C@@H]1O` [baicalin], in the assay on RAW267.4 cells [1], the “effect on RAW267.4 cells (proliferation)” value is “did not result in a significant effect”. For the same compound, the “death of RAW267.4 cells in vitro” value in the assay with RAW267.4 cells [2] is “do not have significant effects”.
Take `COc1cc(/C=C/C(=O)CC(=O)/C=C/c2ccc(O)c(OC)c2)ccc1O` [curcumin, reference compound]: the “proliferation of RAW267.4 cells” value in the assay on RAW267.4 cells [1] (100 and 200 μg/ml, FIG. 2) is listed as “suppressed”.
With `CC(C)=CC(=O)C[C@H](C)c1ccc(C)cc1` [(+)-aromatic turmerone, reference compound], in the assay on RAW267.4 cells [1] (25 and 50 μg/ml, FIG. 3), the “proliferation of RAW267.4 cells” value is listed as “significantly increased”.
As to `Oc1cc(O)c2c(c1)O[C@H](c1ccc(O)c(O)c1)[C@@H](O)C2` [(+)-catechin], the “effect on RAW267.4 cells (proliferation)” value in the assay with RAW267.4 cells [1] is listed as “did not result in a significant effect”. The “death of RAW267.4 cells in vitro” value with RAW267.4 cells [2] is listed as “do not have significant effects”.
